The values below come from patent US7341991B2, “Inhibitors of amyloid precursor protein processing” (Posco, priority 2004, dated 2008).

For data set [1], the system named is γ-secretase cleavage in KEK293 APP cells. As to the kind of experiment: Cell based γ-secretase assay (α-CTF, Western). Also noted: species or system human. Conditions: 9 hours treatment, α-CTF accumulation. As to the method:
In order to test these peptides in the cell for their inhibitory effect on γ-secretase cleavage, a cell based assay was developed. After KEK293 APP cells were cultured in 6 well culture plates with 90% confluency, the cells were treated for 9 hours with N-[N-(3,5-difluorophenacetyl)-L-alanyl]-(S)-phenylglycine t-butyl ester (DAPT) (Dovey H F et al, J. Neurochemistry 2001; 76:173-181), which is a known γ-secretase inhibitor, and complementary peptides. The cells in each well were lysed and these lysates were separated with 15% tris-tricine gel. Western analysis was performed with R1 antibody as primary antibody and goat anti-rabbit-HRP as secondary antibody.

Data set [2] deals with Substrate M (SEVNLDAEFR, β-secretase cleavage site of APPsw). As to the kind of experiment: Binding of biotin-labeled Substrate M to immobilized complementary (HC) peptides. To be noted: biotin-labeled Sub M, peptide immobilized on plate. The method, then:
(§1) Complementary peptides (0.2, 2, 20, and 200 μM) were dissolved in phosphate buffered saline (PBS) (pH 7.4) and fixed to microtiter wells for 5 hr at 37° C. The wells were blocked with blocking buffer (3% BSA/PBS) for 1 hr at 37° C. Either N-terminally biotinylated Substrate W or M (20 μM) in blocking buffer was added and incubated for overnight at 4° C. Streptavidin-horseradish peroxidase in blocking buffer was added to detect resulting bound substrates. The plate was incubated for 2 hr at room temperature (RT), followed by addition of 3, 3′, 5,5′-tetramethyl-benzidine (TMB) as substrate for horseradish peroxidase for color reaction.
(§2) Reacti-Bind™ maleic anhydride-activated polystyrene plate (Pierce, IL, USA) was coated with 50 μl of HC peptide (200 μM in distilled water) by chemical coupling for 3 h at room temperature (RT) and washed three times with phosphate buffered saline (PBS) containing 0.05% tween 20 (PBST). The plate was blocked with blocking buffer (0.5% gelatin in PBS) for 1 h at RT. After discarding blocking buffer, biotinylated BACE1 substrates (200 μM) in blocking buffer was applied on the plate and incubated for 2.5 h at RT. Each well was washed three times with PBST. The bound biotinylated BACE1 substrates were detected by incubation with streptavidin-horseradish peroxidase (Str-HRP, 125 mU/ml in blocking buffer) for 2 h at RT. Color reaction was carried out with 50 μl of 3,3′,5,5′-Tetramethylbenzidine Liquid Substrate (Sigma-Aldrich, MO, USA). After stopping the reaction by addition of an equal volume of 1 N HCl, absorbance at 450 nm was read in an automated ELISA reader (EL 312e, Bio-Tek Instruments, VT, USA). All assays were carried out in duplicate.

For data set [3], the target named is T1, Substrate W (SEVKMDAEFR, β-secretase cleavage site of wild type APP) (Homo sapiens, UniProt P05067).
T1 construct: purchased Peptron, Inc; host or cells: chemical synthesis
Kind of data set: Binding of biotin-labeled Substrate W to immobilized complementary (HC) peptides. As to the method:
as §1
In particular, for Substrate W, complementary peptides (200 μM) dissolved in phosphate buffered saline (PBS) (pH 7.4) were chemically coupled to Reacti-Bind Maleic Anhydride Activated Polystyrene wells (Pierce Biotechnology, Inc.) for overnight at room temperature (RT). Remaining active sites of the plate were inactivated by adding ethanolamine (1 M) for 1 hr at RT. The wells were blocked with blocking buffer (3% BSA/PBS) for 1 hr at RT. N-terminally biotinylated Substrate W (20 μM) in blocking buffer was added and incubated for 3 hr at RT. Streptavidin-horseradish peroxidase in blocking buffer was added to detect resulting bound substrates. The plate was incubated for 2 hr at room temperature (RT), followed by addition of 3,3′,5,5′-tetramethyl-benzidine (TMB) as substrate for horseradish peroxidase for color reaction.
as §2

For data set [4], the system named is cleavage of Substrate M by rhBACE (recombinant human β-secretase). Kind of data set: Fluorometric (FRET) assay for cleavage of F-Substrate M by β-secretase. The format is biochemical. To be noted: for inhibitory activity group on Substrate M cleavage: tested at various concentrations (FIG. 8). An excerpt: This assay system utilizes fluorescence resonance energy transfer (FRET) technology. Substrate M was synthesized with two fluorophores, a fluorescent donor and a proprietary quenching acceptor (purchased from a commercial source, R&D Systems). […] Upon cleavage of substrate by β-secretase, the fluorophore is separated from the quenching group, restoring the full fluorescence yield of donor.
Substrate labeled with fluorophores will be called F-Substrate M (R&D Systems). Recombinant human β-secretase will be called rhBACE (recombinant human β-site APP cleavage enzyme) (purchased from R&D systems).
[…] Cleavage by rhBACE was detected by reading emitted fluorescence level.
In this assay system, fluorescence resonance energy transfer (FRET) technology was utilized. […] After pre-incubation, substrate and HC peptide mixture in assay buffer was transferred to FluoroNunc™ 96 well white plate (Nunc, Roskilde, Denmark), and rhBACE1 (70 nM) was added. Time-dependent emission of fluorescence (excitation at 320 nm, emission at 405 nm) was monitored in a Molecular Devices SpectraMax Gemini EM fluorescence reader (CA, USA) for 1 h at 37° C. All assays were carried out in duplicate.

The subject of data set [5] is APP processing in HEK293-APP cells. As to the kind of experiment: Cell based assay of APP processing (βCTF, Western blot) in HEK293-APP cells. To be noted: βCTF. Also noted: species or system human. As to the method:
In the neuronal cells of the brain, APP is processed by α-secretase or β-secretase. To investigate the effects of the inhibitors on the cell, a cell based assay system was developed as described in FIG. 10. C-terminal fragment of APP remaining on the cell membrane was detected by Western blot. The resulting C-terminal fragments, αCTF or βCTF are further processed by γ-secretase. However, if the cells are treated with the γ-secretase inhibitor, this processing is blocked. As a result, αCTF or βCTF accumulate in the cell. If β-secretase inhibitor or APP inhibitor is added, this processing is blocked and βCTF disappears.
To test APP inhibitor activities in cells, three complementary peptides, c-Sub M, c-Sub MΔC6, and c-Sub MΔN1C1, which show high absorbance in binding test, were added to whole cell extracts of HEK293-APP cells (Lanes 2, 3, and 4 in FIG. 11). In addition, γ-secretase inhibitor and cholesterol were added to the cells to increase βCTF level. Commercially available peptide-based β-secretase inhibitor was included as control (Lane 6, FIG. 11). To detect the N-terminal fragment of β-amyloid which is a product of APP processing, 6E10 antibody was employed. […] Recently, it has been reported that the commercially available peptide-based inhibitor had to be linked to an oligoarginine transporter peptide to have inhibitory activity against cells. Therefore, mimetic approach is adopted to produce cell permeable analogs. (Chang et al. J. Neurochemistry 2004; 89:1409-1416).
After confirming the ability of the oligo-arginine coupled APP inhibitors to enter the cells, the inhibitors were applied to HEK293-APP cells overexpressing APP to test their inhibitory activities on APP processing. […] This inhibitor started to show significant inhibitory activity beginning from 0.1 μM (lower panel).

Another data set concerns the target T2, rhBACE1 (Homo sapiens, UniProt P56817).
T2 construct: purchased R&D Systems
As to the kind of experiment: ELISA binding of rhBACE1 to immobilized c-Sub M. An excerpt: In one embodiment of the present invention, four HC decapeptides targeted to either wild type APP or APPsw may be designed. […] Therefore, there is possibility that c-Sub M or any compounds derived from c-Sub M may inhibit production of Aβ from wild type APP in cells.

Data set [6] has as its system γ-secretase (membrane fractions of N2a cells). As to the kind of experiment: γ-Secretase activity assay on membrane fractions of N2a cells. The data set is classed as biochemical, mouse. Conditions: 200 μM peptide, 12.5 μM fluorogenic substrate, 1 hour preincubation. As to the method: Since γ-secretase is composed of four components, cloning of γ-secretase gene is impossible. Therefore, cell extracts were used as γ-secretase source. To obtain the cell extracts, after cell lysis with extraction buffer, the lysate was centrifuged at 10,000×g for 1 minute. Afterward, 2× reaction buffer and fluorogenic substrate was mixed and added to the cell lysate. Then, this mixture was incubated at 37° C. and γ-secretase activity was detected at excitation 335 to 355 nm and emission 495 to 510 nm.
γ-Secretase activity assay was performed on membrane fractions of N2a cells in the presence of several complementary peptides. After 12.5 μM fluorogenic substrate and 200 μM each of the complementary peptides were preincubated for 1 hour, γ-secretase was added to the mixture. In the course of time, the fluorogenic substrate was cleaved by the γ-secretase.

For data set [7], the system named is cleavage of Sub M by rhBACE1. As to the kind of experiment: HPLC analysis of cleavage of Substrate M by β-secretase. The data set is classed as biochemical. To be noted: 25-fold amount of inhibitor; 420 nM β-secretase. The method, then: Substrate M (100 μM) was preincubated with complementary peptides ([…]) in assay buffer (100 μl) overnight at RT. rhBACE (140 nM) in assay buffer was added and incubated for 11 hr at RT. Cleavage products of Substrate M by rhBACE were quantitated after separation by C-18 reversed-phase column chromatography (GRACE VyDAC).
(§3) One of the advantages of the APP inhibitor described in the present invention is that it is a peptide or a mimetic that bind to the β-secretase cleavage site of APP, thus not affecting other β-secretase substrates. To confirm the specificity of the inventive APP inhibitor, two different types of substrates were used, APP Sub M and ST6Gal1. Both substrates are cleaved by β-secretase under normal conditions and the effect of the inventive APP inhibitor on the substrate cleavage was monitored by HPLC (See the schematic diagram in FIG. 16.) To carry out these experiments, the concentration of β-secretase required for cleavage of both substrates was determined as shown in FIG. 17. For substantial cleavage of ST6Gal1 substrate, 420 nM of the enzyme was required. Therefore, 420 nM of β-secretase was used for the following experiment.
Reversed-phase HPLC was also used to analyze the products of enzyme action in vitro. […] The cleavage products were identified at 215 nm and quantitated by integrating the area under each peak. […]

Data set [8] has as its target T3, Sub-ST6Gal1 (DYEALTLQAKEFQMPKSQE) (Rattus norvegicus, UniProt P13721).
T3 construct: 19 amino acid region (DYEALTL/QAKEFQMPKSQE) that contains the β-cleavage site for investigation was chosen; purchased Peptron, Inc; host or cells: chemical synthesis
As to the kind of experiment: Binding of bio-Sub-ST6Gal1 to immobilized HC peptide. Conditions: peptide coupled on microtiter plate. As to the method:
as §2
It was investigated if HC peptide would show specificity for APP in terms of the inhibition of cleavage by BACE1. ST6Gal1 is also cleaved by BACE1. For this experiment, 19 amino acid region (DYEALTL/QAKEFQMPKSQE) that contains the β-cleavage site for investigation was chosen. The 19 amino acid peptide was designated as Sub-ST6Gal1. […]

The target in data set [9] is T4, cleavage of Sub-ST6Gal1 by rhBACE1 (Rattus norvegicus, UniProt P13721).
T4 construct: Sub-ST6Gal1 (50 μM, DYEALTLQAKEFQMPKSQE) peptide corresponding to the β-cleavage site of ST6Gal1; purchased R&D Systems (enzyme); A&Pep Co., Inc. (non-labelled peptides)
Kind of data set: HPLC analysis of cleavage of ST6Gal1 substrate by β-secretase. The data set is classed as biochemical, human. To be noted: up to 10 inhibitor/substrate ratio; Sub-ST6Gal1 50 μM, 500 nM rhBACE1.
Source text: as §3
Various concentrations of HC peptide were preincubated with either Sub M (50 μM) or Sub-ST6Gal1 (50 μM, DYEALTLQAKEFQMPKSQE) peptide corresponding to the β-cleavage site of ST6Gal1 for 2 h at RT. The mixtures containing Sub M was treated with 50 nM of rhBACE1 and that containing Sub-ST6Gal1 was treated with 500 nM enzyme for 12 h at RT. Roughly 50% of each BACE1 substrate was cleaved in the absence of HC peptide. The cleavage products were separated on a C18 reversed-phase HPLC column as described above.

Entries after “also recorded” stand apart in the source; their conditions may differ. Where no end group is shown, it is not given here.

T2 sequence (P56817 46-501): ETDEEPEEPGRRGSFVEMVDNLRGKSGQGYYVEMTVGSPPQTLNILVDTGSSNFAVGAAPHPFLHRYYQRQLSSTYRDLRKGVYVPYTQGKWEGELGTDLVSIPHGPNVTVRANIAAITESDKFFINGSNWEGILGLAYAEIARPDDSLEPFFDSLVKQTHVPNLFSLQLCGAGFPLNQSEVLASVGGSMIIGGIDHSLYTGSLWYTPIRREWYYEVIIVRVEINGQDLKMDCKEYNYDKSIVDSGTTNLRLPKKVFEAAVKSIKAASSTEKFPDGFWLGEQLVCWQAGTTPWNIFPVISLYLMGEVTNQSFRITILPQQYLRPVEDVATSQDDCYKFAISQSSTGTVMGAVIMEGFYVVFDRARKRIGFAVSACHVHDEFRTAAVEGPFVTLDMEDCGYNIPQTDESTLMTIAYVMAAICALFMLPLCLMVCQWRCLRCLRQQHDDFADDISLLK

On to `C[C@H](NC(=O)Cc1cc(F)cc(F)c1)C(=O)N[C@H](C(=O)OC(C)(C)C)c1ccccc1` [DAPT, N-[N-(3,5-difluorophenacetyl)-L-alanyl]-(S)-phenylglycine t-butyl ester], for which the “inhibition of γ-secretase activity in cells” value in data set [1] is recorded as “inhibits γ-secretase activity very effectively”.
Consider SEFCIQIHFR-NH2 [c-Sub M, SEFCIQIHFR], for which the “binding to Substrate M” value was “binds to Sub M appreciably and bind and binds its substrate Sub M and highest binding” in data set [2]; “bound” in [2] (listed as c-Sub). For the same molecule, the “binding to Sub W relative to c-Sub W” value in data set [3] (bio-Sub W) is listed as 4 fold. Further, the “binding to Substrate W” value in data set [3] (biotin-labeled Sub W, peptide immobilized on plate) was “binds the wild type substrate Sub W efficiently”. Further, in [4] (in vitro, rhBACE1), the “inhibition of cleavage of Substrate M by β-secretase” value was “inhibit cleavage”. Also, the “inhibitory activity group on Substrate M cleavage” value (from here on “inhibitory activity group”) in [4] is given as “less activity”. Besides, in [5], the “inhibitory activity on APP processing” value is recorded as “does not inhibit the processing of APP in cells; also recorded: none of the inhibitors tested showed inhibitory activity”. Also, on rhBACE1, the “binding to rhBACE1” value is given as “does not bind to rhBACE1”. The “entry / transport into the cells” value in the data set on HEK293-APP cells is recorded as “does not enter the cells”.
Turning to PQQYRCHRQR [rCh2 (3′→5′)], the “inhibitory effect on γ-secretase activity” value in data set [6] was “about 80%”.
As for FCIQIHF (FCIQIHF-NH2) [c-Sub M ΔN2C1], the “inhibitory activity group” value in data set [4] is listed as “most active”. Moreover, in [7], the “Sub M cleavage blocked” value was “about 60%”.
With EFCIQIHF [c-Sub M ΔN1C1], the “binding of bio-Sub-ST6Gal1” value in [8] is given as “also bound”. For the same molecule, the “inhibitory activity group” value in [4] is “most active”. For the same molecule, in data set [9], the “inhibition of cleavage of Sub-ST6Gal1” value was “about 10%”. Besides, the “inhibitory activity on APP processing” value in data set [5] is “none of the inhibitors tested showed inhibitory activity”.
